# Results reported in US20170283426A1, “COMPOUNDS FOR THE INHIBITION OF CYCLOPHILINS AND USES THEREOF” (Merck Patent GmbH, priority 2016, published 2017).
# Columns and labels:
# [1] = target: T1, CypD (Homo sapiens, UniProt P30405); test: CypD binding assay, competition Fluorescence-Polarisation with fluorescine labelled cyclosporin
# Method: The binding capacity of the compounds were measured using a competition Fluorescence-Polarisation based assay with fluorescine labelled cyclosporin. The protocol used was adapted from Hausch et al, Med Chem lett 2010, p 536.
# [2] = target: T1, CypD; test: SPR binding; settings: SPR surface; read-out: SPR CypD (KDss)
# From the text: Binding was confirmed on an SPR surface using a protocol adapted from Mori et al., J. Biomolecular Screening, 2009 p 419.
# T1 sequence (P30405 30-207): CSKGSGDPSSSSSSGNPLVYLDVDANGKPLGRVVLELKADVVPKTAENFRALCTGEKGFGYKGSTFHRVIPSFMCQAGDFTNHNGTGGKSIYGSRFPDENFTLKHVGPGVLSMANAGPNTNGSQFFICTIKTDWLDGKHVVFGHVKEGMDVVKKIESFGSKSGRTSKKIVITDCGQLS
Compound,IC50 [1] [µM],Kd [2] [µM]
"CSc1ccccc1[C@H]1CCCN1C(=O)C(=O)NCCc1ccc2c(c1)[C@H]1C[C@@H](N2)[C@H](O)CO1 [Compound 6, N-[2-((1R,9R,10S)-10-hydroxy-12-oxa-8-aza-tricyclo[7.3.1.02,7]trideca-2(7),3,5-trien-4-yl)-ethyl]-2-[(R)-2-(2-methylsulfanyl-phenyl)-pyrrolidin-1-yl]-2-oxo-acetamide]",10 to 100,10 to 100
"O=C(NCCc1cccc(C(F)(F)F)c1)C(=O)NCCc1ccc2c(c1)[C@@H]1C[C@H](N2)[C@H](O)CO1 [Compound 12, N1-(2-((2S,3S,6S)-3-hydroxy-2,3,4,6-tetrahydro-1H-2,6-methanobenzo[c][1,5]oxazocin-8-yl)ethyl)-N2-(3-(trifluoromethyl)phenethyl)oxalamide]",10 to 100,10 to 100
"O=C(NCCc1ccccc1)C(=O)NCCc1ccc2c(c1)[C@@H]1C[C@H](N2)[C@H](O)CO1 [Compound 8, N1-(2-((2S,3S,6S)-3-hydroxy-2,3,4,6-tetrahydro-1H-2,6-methanobenzo[c][1,5]oxazocin-8-yl)ethyl)-N2-phenethyloxalamide]",10 to 100,10 to 100
"O=C(NCc1ccc2c(c1)[C@@H]1C[C@H](N2)[C@H](O)CO1)C(=O)NC1CCCC1 [Compound 13, N-Cyclopentyl-N′-((1S,9S,10S)-10-hydroxy-12-oxa-8-aza-tricyclo[7.3.1.02,7]trideca-2,4,6-trien-4-ylmethyl)-oxalamide]",10 to 100,10 to 100

# The next lines start with the values.
IC50 [1] [µM],Kd [2] [µM],Compound
< 10,< 10,"O=C(NCCc1ccccc1)C(=O)NCCc1ccc2c(c1)[C@H]1C[C@@H](N2)[C@H](O)CO1 [Compound 3, N1-(2-((2R,3S,6R)-3-hydroxy-2,3,4,6-tetrahydro-1H-2,6-methanobenzo[c][1,5]oxazocin-8-yl)ethyl)-N2-phenethyloxalamide]"
10 to 100,10 to 100,"CC(C)(C)CNC(=O)C(=O)NCCc1ccc2c(c1)[C@@H]1C[C@H](N2)[C@H](O)CO1 [Compound 10, N1-(2-((2S,3S,6S)-3-hydroxy-2,3,4,6-tetrahydro-1H-2,6-methanobenzo[c][1,5]oxazocin-8-yl)ethyl)-N2-neopentyloxalamide]"
10 to 100,10 to 100,"O=C(NCCc1ccc2c(c1)[C@H]1C[C@@H](N2)[C@H](O)CO1)C(=O)NCc1cccc(C(F)(F)F)c1 [Compound 11, N1-(2-((2R,3S,6R)-3-hydroxy-2,3,4,6-tetrahydro-1H-2,6-methanobenzo[c][1,5]oxazocin-8-yl)ethyl)-N2-(3-(trifluoromethyl)benzyl)oxalamide]"
< 10,< 10,"CC(C)CNC(=O)C(=O)NCCc1ccc2c(c1)[C@H]1C[C@@H](N2)[C@H](O)CO1 [Compound 4, N-1-(2-((2R,3S,6R)-3-hydroxy-2,3,4,6-tetrahydro-1H-2,6-methanobenzo[c][1,5]oxazocin-8-yl)ethyl)-N2-isobutyloxalamide]"
< 10,< 10,"O=C(NCCc1cccc(C(F)(F)F)c1)C(=O)NCCc1ccc2c(c1)[C@H]1C[C@@H](N2)[C@H](O)CO1 [Compound 5, N1-(2-((2R,3S,6R)-3-hydroxy-2,3,4,6-tetrahydro-1H-2,6-methanobenzo[c][1,5]oxazocin-8-yl)ethyl)-N2-(3-(trifluoromethyl)phenethyl)oxalamide]"
< 10,< 10,"O=C(NCCc1ccc2c(c1)[C@H]1C[C@@H](N2)[C@H](O)CO1)C(=O)N[C@@H]1C[C@H]2CC[C@@H]1C2 [Compound 2, N-Bicyclo[2.2.1]hept-2-yl-N′-[2-((1R,9R,10S)-10-hydroxy-12-oxa-8-aza-tricyclo[7.3.1.02,7]trideca-2,4,6-trien-4-yl)-ethyl]-oxalamide]"
